Experimental data as given in patent US12268665B2, “Combination of immunotherapies with MDM2 inhibitors” (ASCENTAGE PHARMA (SUZHOU) CO., LTD., priority 2018, dated 2025).
Where two headings read alike, the source gives them in different places.

Key:
[1] = system: CD4+ T cells isolated from mouse spleens; assay: Activation of CD4+ T cells by APG-115 (flow cytometry); format: cell-based
Method: Effector T cells play a critical role in antitumor immunity. To investigate whether APG-115 influenced T cell function, CD4^+ T cells isolated from mouse spleens were exposed to APG-115 or solvent control DMSO.
Specifically, CD4^+ T cells were positively selected from mouse spleens using magnetic beads and stimulated with 5 μg/ml plate-bound anti-CD3 and 2 μg/ml anti-CD28 in the presence of APG-115 (250 nM) or DMSO for 24 h (Day 1) or 48 h (Day 2). The percentages of CD25-expressing and CD62L-expressing populations (top panel), and FSC (lower panel) were determined by flow cytometry.

[2] = system: Trp53 mutant MC38 syngeneic murine colon tumor; assay: In vivo efficacy study in MC38 model; design: species or system mouse; conditions: for T/C (%) d17 / RTV (Mean ± SEM) d17: anti-PD-1 5 mg/kg i.p. biw; for RTV (Mean ± SEM) d17: C57BL/6 mice
Method: Each mouse was inoculated subcutaneously at the right flank region with MC38 tumor cells (5×10^5) in 0.1 mL of PBS for tumor development. The treatments were initiated when the mean tumor size reached ˜63 mm^3. The test articles were administered to the tumor-bearing mice according to the regimen shown in the experimental design Table 10. The day of start dosing was defined as d1.
Efficacy of combination treatment with APG-115 plus anti-PD-1 antibody was further evaluated in a Trp53 mutant MC38 syngeneic mouse tumor model on a C57BL/6 background.

[3] = system: stimulated mouse splenocytes; assay: Cytokine production in stimulated mouse splenocytes (MSD V-PLEX); format: cell-based; conditions: 250 nM, 24 h
Method: The effect of APG-115 on cytokine production in stimulated mouse splenocytes was investigated. Mouse splenocytes freshly isolated from mice were stimulated with 5 μg/ml plate-bound anti-CD3 and 2 μg/ml anti-CD28 in the presence of APG-115 (250 nM) or DMSO for 24 h. After the treatment, supernatants were collected from the cell cultures and then cytokines were measured by MSD V-PLEX kit which enabled to test 10 cytokines.

[4] = Pharmacokinetic (PK) analysis in MH-22A tumor-bearing mice (LC/MS/MS); format: in vivo, mouse; conditions: for concentration at 4 h: oral
Method: The quantitative LC/MS/MS analysis was conducted using an Exion HPLC system (AB Sciex, Ontario, Canada) coupled to an API 5500 mass spectrometer (AB Sciex, Ontario, Canada) equipped with an API electrospray ionization (ESI) source. The Phenomenex Titank phenyl-Hexyl column (50 mm×2.1 mm, 5 μm particle size) was used to achieved HPLC separation. The injection volume was 2 μl and the flow rate was kept constantly at 0.5 ml/min. Chromatography was performed with mobile phase A, acetonitrile:water:formic (5:95:0.1, by volume) and B, acetonitrile:water:formic (95:5:0.1, by volume). The mass spectrometer was operated at ESI positive ion mode for APG-115 while ESI negative mode for epacadostat. The detection of the ions was performed in the multiple reaction monitoring (MRM) mode, monitoring the transition of m/z 642.0→246.1 and 271.1→172.0 for APG-115 and IS (tolbutamide) in positive mode, 435.9→338.8 and 269.2→169.2 for epacadostat and IS (tolbutamide) in negative mode, respectively. Compounds parameters, declustering potential (DP), collision energy (CE) were 51, 61 V, 80, 18 V for APG-115 and IS in positive mode, −61, −15 V and −90, −23.5 V for epacadostat and IS in negative mode, respectively.
Blood and tumor samples were collected from 5 mice/group in group-1, group-2, group-3 and group-5 4 hrs after the final dose on […]. Blood samples were collected from 5 mice/group in group-4, group-6, group-7 and group-8 4 hrs after the final dose on d29. Approximately 100 μl blood were collected in EDTA-2K tube and 50 μl plasma were collected for PK analysis. All samples were stored at −80° C. until analysis.
In efficacy study of Example 2.1, mice in vehicle, APG-115 10 mg/kg and 50 mg/kg, and epacadostat single-agent groups were euthanized on d15 as described above. To assess PK characteristics of APG-115 and epacadostat in this study, plasma and tissue samples were collected 4 h after the last dosing on d15.

[5] = Phase I study APG-115-US-001 (NCT02935907): safety; format: in vivo
Method: This Phase I study (APG-115-US-001) was designed to assess safety, toxicity, pharmacokinetics (PK), pharmacodynamics (PD), and antitumor activity of APG-115 orally in patients with advanced solid tumors in US (NCT02935907).
For Safety study of APG-115, the safety evaluation included vital signs, electrocardiogram (ECG) parameters, Easter Cooperative Oncology Group (ECOG) performance status data, clinical laboratory tests and adverse event data. Safety assessments were performed in each treatment cycle.
Single dose escalation study was conducted. A standard “3+3” design was employed to determine the maximum tolerated dose (MTD) of APG-115 by assessing the dose limiting toxicity (DLT) of APG-115. […] of APG-115 was tested: 10, 20, 50, 100, 200, and 300 mg. APG-115 was administrated orally every other day (QOD) for a consecutive 3 weeks (i.e. dosed at Day 1, 3, 5, 7, 9, 11, 13, 15, 17, 19, and 21), with one week dosing off as 4-weeks a cycle. […] The scheme of the trial design is provided below.

[6] = 250 nM, anti-CD3/anti-CD28 stimulated, 24 h or 48 h

CCN1[C@@H](C(=O)NC23CCC(C(=O)O)(CC2)CC3)[C@H](c2cccc(Cl)c2F)[C@]2(C(=O)Nc3cc(Cl)ccc32)C12CCCCC2 [APG-115]
caspase 3 cleavage in T cells ([1]; 250 nM of APG-115): not detected
CD25^highCD62L^low cell populations [1, 6]: rapid increase
cell size of stimulated CD4+ T cells (FSC) [1, 6]: increase in cell size
T/C (%) d17 ([2]; APG-115 10 mg/kg p.o. q2d): 73%
RTV (Mean ± SEM) d17 ([2]; APG-115 10 mg/kg p.o. q2d): 15.3 ± 2.7
T/C (%) d17 ([2]; APG-115 50 mg/kg p.o. q2d): 94%
RTV (Mean ± SEM) d17 ([2]; APG-115 50 mg/kg p.o. q2d): 19.8 ± 2.2
antitumor activity as single agent ([2]; APG-115 10 and 50 mg/kg): minimal antitumor activity
expression levels of IL-1β, IL-5, KC/GRO, IL-12p70 [3]: below detection limit
inflammatory cytokines including IFN-γ, IL-2, TNF-α, IL-10 and IL-4 ([3]; anti-CD3/anti-CD28 stimulated): upregulation
increases in systemic exposure and tissue distribution with dose ([4]; 10 vs 50 mg/kg): approximately dose proportional
pharmacokinetic interaction with anti-PD-1 antibody ([4]; mouse, in vivo): no apparent pharmacokinetic interaction
concentration at 4 h ([4]; mouse, plasma, 10 mg/kg, 10 mg/kg daily oral for 15 days, single agent, 4 h after last dosing, read-out: plasma concentration of APG-115): 0.157 µg/mL
concentration at 4 h ([4]; mouse, plasma, 10 mg/kg, 10 mg/kg in combination with anti-PD-1, read-out: plasma concentration of APG-115): 0.12 µg/mL
concentration at 4 h ([4]; mouse, plasma, 50 mg/kg, 50 mg/kg daily oral for 15 days, single agent, 4 h after last dosing, read-out: plasma concentration of APG-115): 1.23 µg/mL
concentration at 4 h ([4]; mouse, plasma, 50 mg/kg, 50 mg/kg in combination with anti-PD-1, read-out: plasma concentration of APG-115): 2.15 µg/mL
concentration at 4 h ([4]; mouse, tumor, 10 mg/kg, 10 mg/kg as single agent, read-out: APG-115 concentration in tumor tissues): 152 ng/g
concentration at 4 h ([4]; mouse, tumor, 50 mg/kg, 50 mg/kg as single agent, read-out: APG-115 concentration in tumor tissues): 1470 ng/g
MTD/RP2D of APG-115 monotherapy ([5]; QOD 3 weeks on, 1 week off): 100 mg
pts discontinued treatment: Adverse Event ([5]; human, in vivo): 3
DLTs observed during cycle 1 ([5]; in vivo): Four
events determined as DLTs ([5]; in vivo): Platelet count decreased, fatigue, and nausea
patients with Absolute neutrophil count decreased (less than 1.00×10^3/uL) after C2D21 ([5]; in vivo): three patients
